Where “and” joins values, the source holds several entries; their conditions need not be identical. Identical values can stand only once. Like-named read-outs stand apart in the source and are kept apart here.
Assays:
[1] = test system: Medicago truncatula hydroperoxide lyase CYP74C3 (HPLF), recombinant, wild type, N-terminal histidine-tagged; conditions: for Km / kcat: pH 6.5, 25° C.; for Km / affinity, fold change on detergent removal (Km higher) / kcat, fold difference (detergent-buffer higher than detergent-free): detergent-buffer vs detergent-free; for catalytic efficiency (kcat/Km) of detergent-free enzyme as % of enzyme purified without detergent removal: detergent-free vs detergent-buffer; for kcat as % of kcat with 13α-HPOT: purified in detergent-buffer
CYP74C3 [2] = conditions: cited from earlier work
CYP74A1 [3] = biological target: T1, CYP74A1 (Arabidopsis thaliana, UniProt Q96242)
T1 sequence (Q96242 with tags, fused parts or gaps): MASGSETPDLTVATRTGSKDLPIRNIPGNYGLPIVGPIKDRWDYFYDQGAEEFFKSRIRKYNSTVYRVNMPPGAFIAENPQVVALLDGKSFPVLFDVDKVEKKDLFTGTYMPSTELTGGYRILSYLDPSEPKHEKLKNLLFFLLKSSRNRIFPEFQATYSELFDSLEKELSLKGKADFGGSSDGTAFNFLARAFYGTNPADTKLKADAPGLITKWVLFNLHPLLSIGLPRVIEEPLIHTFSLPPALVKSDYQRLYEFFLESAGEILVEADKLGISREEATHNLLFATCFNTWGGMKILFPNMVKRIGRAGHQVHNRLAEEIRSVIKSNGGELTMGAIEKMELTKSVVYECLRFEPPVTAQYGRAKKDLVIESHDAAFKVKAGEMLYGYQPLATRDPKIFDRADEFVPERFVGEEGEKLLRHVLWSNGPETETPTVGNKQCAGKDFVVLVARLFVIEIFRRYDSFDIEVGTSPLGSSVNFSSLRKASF

CYP74C3 [4] = test system: CYP74C3
Description: (a) UV/Visible spectra of ligand-bound forms of oxidised native CYP74C3 (2 μM, ? ); KCN (100 mM, ——); imidazole (50 mM, ---------); DMPhP (250 mM, —[…] […]—). The spectrum of dithionite (50 mM) reduced CYP74C3 (2 μM) before ([…]) and after (—[…]—) reaction with CO (˜1 mM) are also shown. […] (c) Stopped-flow diode array spectral changes over a period of 200 s for cyanide (100 mM) binding to native oxidised CYP74C3 (2 μM).
Spectra and steady-state kinetic analyses were performed using a dual beam scanning Shimadzu UV/Visible spectrophotometer (Model UV-1601, Shimadzu, Milton Keynes, U.K.). […] Stopped flow-UV/Visible data were analysed with the KineticAsyst 3.0 software package (Hi-Tech Scientific). Ligand-binding studies were carried out with both the native oxidised and the dithionite ion reduced forms of CYP74C3.

CYP74C3 [5] = assay type: biochemical, Medicago truncatula
Description: Protein content was estimated using the Bradford or bicinchoninic acid (BCA) assay (Pierce, Perbio Science, Cramlington, Northumberland, U.K.) according to the manufacturer's instructions. Bovine serum albumin was used as a standard. […] Substrate specificity was determined by comparing kcat/Km.

AOS = conditions: ref [23′]; cited from earlier work
CYP74A1 [6] = biological target: T1, CYP74A1; conditions: pH 6.5
CYP74C3 [7] = test system: CYP74C3; remark: listed apart in the source
Description: (a) Dose response curve for reactivation of detergent-free CYP74C3 with the detergent Emulphogene. Detergent-free CYP74C3 was incubated with an equal volume of 100 mM sodium phosphate buffer, pH 6.5 or containing detergent (0.01-10.24 mM Emulphogene) for 15 min on ice. Samples (1.2 pmol) were then assayed for HPL activity in the standard assay with 20 μM 13α-HPOT; (b) Plot of predicted micelle concentration versus activity for calculation of Kd for Emulphogene binding and (c) Fit of velocity-substrate curves to one-site saturation model in SigmaPlot for detergent-free CYP74C3 (1.0 pmol, ∘---∘), CYP74C3 purified in detergent-buffer (0.5 pmol, ∘—∘) and detergent-free CYP74C3 after reactivation with 5 mM Emulphogene (0.5 pmol, ▾—▾). […] Error bars are the means±standard errors of at least six determinations on two different enzyme preparations.
Substrate specificity was determined by comparing kcat/Km.

[8] = assay type: physicochemical
Description: The following table provides a summary enzyme stability studies conducted on HPL and AOS enzymes, subjected to either freeze drying or speedvac drying, in the presence or absence of detergent. What is reported here is the degree to which enzyme activity is lost based on the storage condition. […] Subsequent re-hydration of each dried enzyme and spectroscopic analysis was used to determine the stability of the thus-treated enzymes. FIG. 11 provides stability over time information for the thus stored enzymes showing stability for at least ten weeks. UV/Vis spectra of detergent-free preparations of CYP74C3 (HPLF), CYP74A1 (AOS) and Pepper HPL were determined before and after freeze drying, as well as before and after drying in a speedvac. […] The UV/Vis spectra of preparations of CYP74C3 (HPLF), CYP74A1 (AOS) and Pepper HPL in the detergent triton before and after freeze drying were further determined. The UV/Vis spectra of these preparations were used to determine the percentage loss of protein resulting from freeze drying, or drying in a speedvac and the results are summarised in the following table.

[9] = +Detergent (purified in detergent-buffer)
[10] = Reactivated with 5 mM Emulphogene
[11] = monomer-micelle complex vs detergent-free monomer

CCCCC/C=C\C=C\[C@H](CCCCCCCC(=O)O)OO [9α-HPOD]
Substrate specificity (% 13α-HPOT), from kcat/Km [1, 9]: 8%
kcat/Km [1, 9]: 1.29e+07 M⁻¹ s⁻¹
Km [1, 9]: 15.3 ± 1.4 µM
kcat [1, 9]: 197 ± 6 s⁻¹
Substrate specificity (% 13α-HPOT), from kcat/Km ([1]; Detergent-free): 16%
kcat/Km ([1]; Detergent-free): 500000 M⁻¹ s⁻¹
Km ([1]; Detergent-free): 84.5 ± 10.1 µM
kcat ([1]; Detergent-free): 44 ± 2 s⁻¹
Substrate specificity (% 13α-HPOT), from kcat/Km [1, 10]: 5%
kcat/Km [1, 10]: 7.2e+06 M⁻¹ s⁻¹
Km [1, 10]: 25.8 ± 2.2 µM
kcat [1, 10]: 185 ± 7 s⁻¹
Km / affinity, fold change on detergent removal (Km higher) [1]: 6 fold
kcat, fold difference (detergent-buffer higher than detergent-free) [1]: 5 fold
catalytic efficiency (kcat/Km) of detergent-free enzyme as % of enzyme purified without detergent removal [1]: 4%
kcat as % of kcat with 13α-HPOT [1]: 38%

CC/C=C\C/C=C\C=C\[C@H](CCCCCCCC(=O)O)OO [9α-HPOT, 9-S-hydroperoxy-10E,12Z,15Z-octadecatrienoic acid]
Substrate specificity (% 13α-HPOT), from kcat/Km [1, 9]: 0.4%
kcat/Km [1, 9]: 600000 M⁻¹ s⁻¹
Km [1, 9]: 39.1 ± 7.2 µM
kcat [1, 9]: 24 ± 2 s⁻¹
Substrate specificity (% 13α-HPOT), from kcat/Km ([1]; Detergent-free): 3%
kcat/Km ([1]; Detergent-free): 100000 M⁻¹ s⁻¹
Km ([1]; Detergent-free): 81.6 ± 9.7 µM
kcat ([1]; Detergent-free): 8 ± 0 s⁻¹
Substrate specificity (% 13α-HPOT), from kcat/Km [1, 10]: 0.4%
kcat/Km [1, 10]: 600000 M⁻¹ s⁻¹
Km [1, 10]: 51.7 ± 4.4 µM
kcat [1, 10]: 30 ± 1 s⁻¹
Km / affinity, fold change on detergent removal (Km higher) [1]: 2 fold
kcat, fold difference (detergent-buffer higher than detergent-free) [1]: 3 fold
catalytic efficiency (kcat/Km) of detergent-free enzyme as % of enzyme purified without detergent removal [1]: 17%
kcat as % of kcat with 13α-HPOT [1]: 5%

CCCCC[C@@H](/C=C/C=C\CCCCCCCC(=O)O)OO [13α-HPOD, 13-S-hydroperoxyoctadeca-9Z, 11 E-dienoic acid]
Substrate specificity (% 13α-HPOT), from kcat/Km [1, 9]: 23% and 19%
kcat/Km [1, 9]: 3.5e+07 M⁻¹ s⁻¹
Km [1, 9]: 10.3 ± 2.1 µM
kcat [1, 9]: 361 ± 19 s⁻¹
Substrate specificity (% 13α-HPOT), from kcat/Km ([1]; Detergent-free): 19%
kcat/Km ([1]; Detergent-free): 600000 M⁻¹ s⁻¹
Km ([1]; Detergent-free): 102 ± 11.8 µM
kcat ([1]; Detergent-free): 59 ± 3 s⁻¹
Substrate specificity (% 13α-HPOT), from kcat/Km [1, 10]: 22%
kcat/Km [1, 10]: 3.35e+07 M⁻¹ s⁻¹
Km [1, 10]: 14.7 ± 1.9 µM
kcat [1, 10]: 493 ± 17 s⁻¹
Km / affinity, fold change on detergent removal (Km higher) [1]: 10 fold
kcat, fold difference (detergent-buffer higher than detergent-free) [1]: 6 fold
catalytic efficiency (kcat/Km) of detergent-free enzyme as % of enzyme purified without detergent removal [1]: 2%
kcat as % of kcat with 13α-HPOT [1]: 70%

CC/C=C\C[C@@H](/C=C/C=C\CCCCCCCC(=O)O)OO [13α-HPOT, 13-S-hydroperoxy-9Z,11E,15Z-octadecatrienoic acid]
fold increase in kcat/Km upon micelle binding (CYP74C3 [2]): ~50 fold
fold increase in kcat/Km after reactivation with detergent micelles (CYP74A1 [3]): ~50 fold
Substrate specificity (% 13α-HPOT), from kcat/Km [1, 9]: 100%
kcat/Km [1, 9]: 1.558e+08 M⁻¹ s⁻¹
Km [1, 9]: 3.3 µM
kcat [1, 9]: 514 ± 11 s⁻¹
Substrate specificity (% 13α-HPOT), from kcat/Km ([1]; Detergent-free): 100%
kcat/Km ([1]; Detergent-free): 3.2e+06 M⁻¹ s⁻¹
Km ([1]; Detergent-free): 20.9 ± 1.7 µM
kcat ([1]; Detergent-free): 68 ± 5 s⁻¹
Substrate specificity (% 13α-HPOT), from kcat/Km [1, 10]: 100%
kcat/Km [1, 10]: 1.493e+08 M⁻¹ s⁻¹
Km [1, 10]: 4.4 ± 0.6 µM
Km / affinity, fold change on detergent removal (Km higher) [1]: 6 fold
kcat, fold difference (detergent-buffer higher than detergent-free) [1]: approximately 8 fold
catalytic efficiency (kcat/Km) of detergent-free enzyme as % of enzyme purified without detergent removal [1]: 2%
CYP74C3, fold faster than CYP74A1 (kcat/Km) ([1]; in detergent micelles, CYP74C3 vs CYP74A1): 2.6 fold
fold increase in kcat/Km upon micelle binding ([1]; micelle-bound vs detergent-free): ~50 fold
Km of monomer-micelle complex, fold lower than detergent-free monomer [1, 11]: 5-6 fold
kcat of monomer-micelle complex, fold higher than detergent-free monomer [1, 11]: 8-10 fold
kcat/Km ([1]; with detergent): up to 1.6×10^8 M^−1. s^−1

[N-]=[N+]=[N-] [Azide, azide]
binding of ligand to CYP74C3 (CYP74C3 [4]): shown to bind
Spin state of the haem iron after ligand or detergent binding (CYP74C3 [4]; pH 6.5): Mixture

c1ccc2[nH]cnc2c1 [BI, benzimidazole]
binding of ligand to CYP74C3 (CYP74C3 [4]): shown to bind

[C-]#[O+] [CO, Carbon monoxide]
Spin state of the haem iron after ligand or detergent binding (CYP74C3 [4]; pH 6.5): Low

c1c[nH]cn1 [Imidazole, imidazole]
binding of ligand to CYP74C3 (CYP74C3 [4]): shown to bind
k1 of biphasic ligand binding (CYP74C3 [4]; pH 6.5): 2.5±0.1×10^−2 s^−1
k2 of biphasic ligand binding (CYP74C3 [4]; pH 6.5): 0.33±0.03×10^−2 s^−1
activity of CYP74C3 after elution from IMAC with the ligand (CYP74C3 [5]): virtually inactive enzyme
inhibition of AOS (AOS): potent inhibitor

N#C[S-].[K+] [KCNS, potassium thiocyanate]
binding of ligand to CYP74C3 (CYP74C3 [4]): shown to bind
Spin state of the haem iron after ligand or detergent binding (CYP74C3 [4]; pH 6.5): Mixture

O=O [O2, dioxygen]
binding of ligand to CYP74C3 (CYP74C3 [4]): shown to bind

c1ccncc1 [Pyridine, pyridine]
binding of ligand to CYP74C3 (CYP74C3 [4]): shown to bind
Spin state of the haem iron after ligand or detergent binding (CYP74C3 [4]; pH 6.5): Low

c1cscn1 [Thiazole, thiazole]
binding of ligand to CYP74C3 (CYP74C3 [4]): shown to bind

polyoxyethylene 10 tridecyl ether [Emulphogene]
Spin state of the haem iron after ligand or detergent binding (CYP74C3 [4]; pH 6.5): Low
Kd (CYP74A1 [6]): 10.7 ± 1.7 µM
Emulphogene concentration at which detergent-free CYP74C3 could be reactivated (CYP74C3 [7]): exceeding 2.6 mM
Kd (CYP74C3 [7]): 6.9 µM
reactivation of detergent-free CYP74C3 (CYP74C3 [7]): No reactivation

B1: CYP74A1: recombinant allene oxide synthase (AOS) from Arabidopsis thaliana (protein, UniProt Q96242 34-518, looked up)
Allene oxide synthase, …: SGSETPDLTVATRTGSKDLPIRNIPGNYGLPIVGPIKDRWDYFYDQGAEEFFKSRIRKYNSTVYRVNMPPGAFIAENPQVVALLDGKSFPVLFDVDKVEKKDLFTGTYMPSTELTGGYRILSYLDPSEPKHEKLKNLLFFLLKSSRNRIFPEFQATYSELFDSLEKELSLKGKADFGGSSDGTAFNFLARAFYGTNPADTKLKADAPGLITKWVLFNLHPLLSIGLPRVIEEPLIHTFSLPPALVKSDYQRLYEFFLESAGEILVEADKLGISREEATHNLLFATCFNTWGGMKILFPNMVKRIGRAGHQVHNRLAEEIRSVIKSNGGELTMGAIEKMELTKSVVYECLRFEPPVTAQYGRAKKDLVIESHDAAFKVKAGEMLYGYQPLATRDPKIFDRADEFVPERFVGEEGEKLLRHVLWSNGPETETPTVGNKQCAGKDFVVLVARLFVIEIFRRYDSFDIEVGTSPLGSSVNFSSLRKASF
Loss of active protein (%) ([8]; Freeze Drying, +Emulphogene (0.3% w/v)): 58.1%
Loss of active protein (%) ([8]; Freeze Drying, +Triton X-100 (0.2% w/v)): 41.3%
Loss of active protein (%) ([8]; Freeze Drying, Detergent-free): 2.3%
Loss of active protein (%) ([8]; Speedvac Drying, +Emulphogene (0.3% w/v)): 83.1%
Loss of active protein (%) ([8]; Speedvac Drying, Detergent-free): 17.6%
fold increase in kcat/Km after reactivation with detergent micelles (CYP74A1 [3]): 48 fold

Reference: US20100035311A1, “METHOD AND COMPOSITION FOR ENZYME STORAGE” (priority 2006, published 2010)
